Data: patent publication US5503843A, “Transdermal delivery of alpha adrenoceptor blocking agents” (priority 1994, dated 1996)
≈ marks a conversion by molar mass, not a printed value. Read-outs that look alike come from different tables or passages of the source.

Experiments:
[1] = system: rabbit prostrate, urethra, and vesical triangle; conditions: Honda et al.; cited from earlier work
[2] = system: human urethra and vesical triangle; conditions: Honda et al.; cited from earlier work
[3] = system: guinea pig prostrate, urethra, and vesical triangle; conditions: Honda et al.; cited from earlier work
[4] = in vivo; cited from earlier work
[5] = system: alpha1 A and alpha1 B adrenoceptors; conditions: Michel et al.; cited from earlier work
[6] = cited from earlier work
[7] = system: smooth muscle originating from the trigone muscle at the base of the bladder; conditions: trigone smooth muscle preparations; cited from earlier work
[8] = system: rabbit trigone; conditions: in vitro; cited from earlier work
[9] = system: rabbit urethral ring tissues; conditions: in vitro; cited from earlier work
[10] = pKa of alpha blockers (Table 1); assay type: physicochemical
Source text: However, the solubility improvement largely depends on the choice of solvent, any specific common ion interaction and the size and polarity of the counterion. Often, salts prepared from strong acids are freely soluble in water. […] Suitable alkane- or arenesulfonic acid anions include […], tosylate (para-toluenesulfonate), mesylate (methanesulfonate), napsylate (1-napthalene-2-sulfonate), besylate (benzene sulfonate) and […].

[11] = system: mammalian lower urinary tract; conditions: in vivo; cited from earlier work
[12] = system: alpha1 adrenergic receptors; conditions: WO93/17007; cited from earlier work
[13] = system: rat bladder strip; conditions: WO93/17007; cited from earlier work
[14] = Solubility of Rec 15/2739 free base in various vehicles (Table 2); assay type: physicochemical
Description: Table 2 provides the solubility of the free base forms of the alpha blocker Rec 15/2739 in various vehicles. Solubility of free base is indicated as μg per ml of medium. PBS indicates phosphate buffered saline (20 mM phosphate and 0.9% NaCl).

In the case of `CCOc1ccccc1OCCNC(C)Cc1ccc(OC)c(S(N)(=O)=O)c1` (stereo not drawn) [Tamsulosin, 5-2-2-(o-Ethoxyphenoxy)-ethyl!amino!propyl!-2-methoxybenzenesulfonamide], the reduction of contraction [1] is given as “reduces the contraction”, the reduction of contraction [2] is given as “reduces the contraction” and the reduction of contraction [3] is given as “reduces the contraction”.
For `COc1cc2nc(N3CCN(C(=O)c4ccco4)CC3)nc(N)c2cc1OC` [Prazosin, reference compound], the “most common side effect” value [4] is listed as “hypotension”.
In the case of `COc1cc2nc(N(C)CCCNC(=O)C3CCCO3)nc(N)c2cc1OC` (stereo not drawn) [Alfuzosin, N-3-(4-Amino-6,7dimethoxy-2-quinazolinyl) methylamino!propyl!tetrahydro-2-furancarboxamide], the “selectivity for alpha1 subtypes” value [5] is given as “lacks any relevant selectivity for alpha1 subtypes”, the plasma half life ([6]; S. Lieto di Priolo et al.) is given as 4 to 9 h and the mean oral bioavailability ([6]; oral, Wilde et al.) is given as 64%. For the same compound, the “activity in altering phenylephrine induced contractions” value [7] was “shows activity in altering the phenylephrine induced contractions”.
In the case of `COc1cc2nc(N(C)CCCNC(=O)[C@H]3CCCO3)nc(N)c2cc1OC` [R enantiomer], the “potency in antagonizing phenylephrine induced contraction (R vs S enantiomer)” value (“potency … (R vs S enantiomer)” for short) [8] is given as “equally potent” and the “potency … (R vs S enantiomer)” value [9] is given as “equally potent”.
In the case of `COc1cc2nc(N3CCN(C(=O)C4CCCO4)CC3)nc(N)c2cc1OC` (stereo not drawn) [Terazosin, reference compound], the pKa [10] is reported as 7.1.
For `COc1cc2nc(N(C)CCCNC(=O)[C@@H]3CCCO3)nc(N)c2cc1OC` [S enantiomer], the “potency … (R vs S enantiomer)” value [8] is listed as “equally potent” and the “potency … (R vs S enantiomer)” value [9] is listed as “equally potent”.
In the case of `COc1ccccc1N1CCN(CCCNC(=O)c2cccc3c(=O)c(C)c(-c4ccccc4)oc23)CC1` [Rec 15/2739, 8(3-4-(2-methoxyphenyl)-1-piperazinyl!-propylcarbamoyl)-3-methyl-4-oxo-2-phenyl-4H-1-benzopyran], the “selectivity for lower urinary tract (urethral contractions vs lowering blood pressure)” value [11] is listed as “substantially more active in antagonizing urethral contractions than in lowering blood pressure”, the “affinity and selectivity for alpha1 adrenergic receptors” value [12] is listed as “has affinity and selectivity for the alpha1 adrenergic receptors” and the pKa ([10]; read-out: pKa) is listed as 7. The toxicity [4] was “low toxicity”, the “antagonistic effects against contractions induced by potassium chloride” value [13] was “demonstrate antagonistic effects against contractions of rat bladder strip induced by potassium chloride” and the solubility ([14]; aqueous buffer, PBS pH 5.2) was 68 µg/mL (≈ 133 µM). For the same compound, the solubility ([14]; aqueous buffer, PBS pH 6.7) was 5.2 µg/mL (≈ 10.2 µM) and the solubility ([14]; saline) was 1.5 µg/mL (≈ 2.93 µM).
